Test system: SEM cells
Assay: cell viability relative to DMSO control; higher = less cytotoxic
Settings: 48 h
Procedure, shortened: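 Leukemia cells (NOMO1 or SEM, 500 cells/well; P12-Ichikawa, 1000 cells/well) were seeded in 5 μl in 1536-well plates after at least four passages of adaptation to each medium. They received library compounds in DMSO by pin dosing, 11 threefold points from 47 μM to 0.79 nM. Luminescence with CellTiter-Glo One was read after 48 h at 37°C. Viability is stated per plate relative to DMSO wells, with cell-free wells as background.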

[1] = HPLM + 10% dialyzed FBS, 0.000781 µM
[2] = HPLM + 10% dialyzed FBS, 0.00234 µM
[3] = HPLM + 10% dialyzed FBS, 0.00702 µM
[4] = HPLM + 10% dialyzed FBS, 0.0211 µM
[5] = HPLM + 10% dialyzed FBS, 0.0632 µM
[6] = HPLM + 10% dialyzed FBS, 0.19 µM
[7] = HPLM + 10% dialyzed FBS, 0.569 µM
[8] = HPLM + 10% dialyzed FBS, 1.71 µM
[9] = HPLM + 10% dialyzed FBS, 5.12 µM
[10] = HPLM + 10% dialyzed FBS, 15.4 µM
[11] = HPLM + 10% dialyzed FBS, 46.1 µM
[12] = RPMI 5 mM glucose + 10% dialyzed FBS, 0.000781 µM
[13] = RPMI 5 mM glucose + 10% dialyzed FBS, 0.00234 µM
[14] = RPMI 5 mM glucose + 10% dialyzed FBS, 0.00702 µM
[15] = RPMI 5 mM glucose + 10% dialyzed FBS, 0.0211 µM
[16] = RPMI 5 mM glucose + 10% dialyzed FBS, 0.0632 µM
[17] = RPMI 5 mM glucose + 10% dialyzed FBS, 0.19 µM
[18] = RPMI 5 mM glucose + 10% dialyzed FBS, 0.569 µM
[19] = RPMI 5 mM glucose + 10% dialyzed FBS, 1.71 µM
[20] = RPMI 5 mM glucose + 10% dialyzed FBS, 5.12 µM
[21] = RPMI 5 mM glucose + 10% dialyzed FBS, 15.4 µM
[22] = RPMI 5 mM glucose + 10% dialyzed FBS, 46.1 µM
[23] = RPMI 5 mM glucose + 10% FBS, 0.000781 µM
[24] = RPMI 5 mM glucose + 10% FBS, 0.00234 µM
[25] = RPMI 5 mM glucose + 10% FBS, 0.00702 µM
[26] = RPMI 5 mM glucose + 10% FBS, 0.0211 µM
[27] = RPMI 5 mM glucose + 10% FBS, 0.0632 µM
[28] = RPMI 5 mM glucose + 10% FBS, 0.19 µM
[29] = RPMI 5 mM glucose + 10% FBS, 0.569 µM
[30] = RPMI 5 mM glucose + 10% FBS, 1.71 µM
[31] = RPMI 5 mM glucose + 10% FBS, 5.12 µM
[32] = RPMI 5 mM glucose + 10% FBS, 15.4 µM
[33] = RPMI 5 mM glucose + 10% FBS, 46.1 µM

Row | Compound | cell viability [1] | cell viability [2] | cell viability [3] | cell viability [4] | cell viability [5] | cell viability [6] | cell viability [7] | cell viability [8] | cell viability [9] | cell viability [10] | cell viability [11] | cell viability [12] | cell viability [13] | cell viability [14] | cell viability [15] | cell viability [16] | cell viability [17] | cell viability [18] | cell viability [19] | cell viability [20] | cell viability [21] | cell viability [22] | cell viability [23] | cell viability [24] | cell viability [25] | cell viability [26] | cell viability [27] | cell viability [28] | cell viability [29] | cell viability [30] | cell viability [31] | cell viability [32] | cell viability [33]
1 | COc1cc2c(cc1OC)CN(CCc1ccc(NC(=O)c3cc(OC)c(OC)cc3NC(=O)c3cnc4ccccc4c3)cc1)CC2 | 116% | 115% | 116% | 123% | 111% | 110% | 123% | 120% | 101% | 69% | 79.6% | 115% | 123% | 114% | 108% | 122% | 123% | 121% | 132% | 103% | 59.9% | 47.9% |  |  |  |  |  |  |  |  |  |  | 
2 | COC1=CC=C(C(=C1)OC(C)C)C/2=N/[C@@H]([C@@H](N2C(=O)N3CCNC(=O)C3)C4=CC=C(Cl)C=C4)C5=CC=C(Cl)C=C5 | 92.4% | 110% | 112% | 106% | 87.1% | 56.5% | 42.5% | 33.1% | 29.2% | 16.1% | 5.42% | 101% | 106% | 101% | 83.5% | 79.8% | 45.1% | 41.1% | 27.8% | 20.5% | 12.3% | 3.12% | 100% | 125% | 99.9% | 105% | 60.6% | 55.6% | 46.5% | 34.5% | 23.6% | 6.03% | 1.48%
3 | COc1c(C)c2c(c(O)c1C/C=C(\C)CCC(=O)O)C(=O)OC2 | 92.9% | 104% | 104% | 111% | 113% | 100% | 120% | 111% | 97% | 61.2% | 33.3% | 102% | 104% | 115% | 81.9% | 114% | 108% | 100% | 116% | 108% | 64.8% | 45.6% | 102% | 105% | 114% | 109% | 113% | 102% | 118% | 98.2% | 77% | 48.1% | 29.9%
4 | COC1=C(OCCCN2CCOCC2)C=C3N=CC=C(OC4=CC=C(C=C4F)\C5=C\N=C(\NC6=CC=C(F)C=C6)N(C)C5=O)C3=C1 | 110% | 112% | 110% | 91.7% | 68.9% | 57.7% | 59% | 52.4% | 47.8% | 40.7% | 5.64% | 110% | 116% | 103% | 77.9% | 73.8% | 52% | 45.9% | 44% | 43% | 34.8% | 3.15% | 103% | 108% | 113% | 81.2% | 79.4% | 65.2% | 46.7% | 56.5% | 52.6% | 37.6% | 1.97%
5 | CC(C)(O)CC(=O)NCCn1ccc2ncnc(Nc3ccc(Oc4cccc(C(F)(F)F)c4)c(Cl)c3)c21 | 106% | 110% | 102% | 103% | 112% | 105% | 103% | 96.5% | 94.6% | 71.6% | 32.9% | 105% | 88% | 102% | 103% | 109% | 107% | 100% | 101% | 90.4% | 58.5% | 23.6% |  |  |  |  |  |  |  |  |  |  | 
6 | CC[C@@H]([C@H](C)O)n1ncn(-c2ccc(N3CCN(c4ccc(OCC5CO[C@@](Cn6cncn6)(c6ccc(F)cc6F)C5)cc4)CC3)cc2)c1=O (some centres not stated) | 92.3% | 110% | 107% | 107% | 114% | 100% | 107% | 100% | 102% | 59.1% | 82.7% | 112% | 111% | 108% | 124% | 106% | 105% | 106% | 115% | 102% | 90.7% | 81.8% | 96.7% | 101% | 109% | 105% | 105% | 115% | 93.8% | 103% | 86.9% | 87.7% | 78.2%
7 | C[C@@H](CN1CC(=O)NC(=O)C1)N1CC(=O)NC(=O)C1 | 86.3% | 103% | 102% | 96.6% | 70.9% | 32.1% | 17.2% | 12.8% | 10.5% | 5.86% | 4.47% | 75% | 101% | 92.6% | 82.5% | 61.1% | 18.6% | 8.07% | 8.83% | 7.97% | 4.17% | 3.08% | 93.6% | 99.3% | 98.2% | 67.1% | 72.1% | 17.1% | 9.93% | 8.96% | 7.24% | 4.49% | 3.85%
8 | O=C(CCCN1CCN(c2ccc(F)cc2)CC1)NC1c2ccccc2CSc2ccccc21 (configuration not stated) | 111% | 135% | 116% | 126% | 131% | 121% | 33.8% | 126% | 113% | 118% | 89.6% | 112% | 122% | 102% | 104% | 123% | 112% | 40.7% | 113% | 95.3% | 81.2% | 43.6% | 128% | 112% | 115% | 115% | 120% | 118% | 51% | 103% | 101% | 92% | 49.9%
9 | COc1ccc2c(c1)CN(C)CC2c1ccc(Cl)c(Cl)c1 (configuration not stated) | 78% | 104% | 121% | 102% | 122% | 109% | 133% | 117% | 126% | 117% | 58.7% | 89.2% | 109% | 133% | 104% | 138% | 168% | 157% | 150% | 143% | 141% | 109% | 95.5% | 112% | 140% | 108% | 136% | 136% | 131% | 123% | 128% | 125% | 74.5%
10 | CCc1ccc(/C=C2/SC(=S)NC2=O)cc1 | 65.6% | 63.5% | 87.9% | 76.4% | 66.2% | 64.8% | 77.2% | 64.8% | 80.9% | 27.6% | 34.5% | 79.3% | 62.7% | 74% | 74.2% | 69.9% | 61% | 66.4% | 57.3% | 58.6% | 20.5% | 27% | 78% | 89.9% | 94% | 106% | 97% | 77.9% | 80% | 87.2% | 74.6% | 40.1% | 45.4%
11 | COC(=O)C\1=C(C)\N\C(=C(/C1C2=CC=CC3=NON=C23)C(=O)OC(C)C)C (configuration not stated) | 105% | 98.6% | 97.7% | 105% | 109% | 100% | 95% | 83.6% | 110% | 90.4% | 80.1% | 98.9% | 96.9% | 104% | 110% | 111% | 114% | 114% | 95.2% | 87.2% | 99.2% | 70.8% | 87.2% | 96.4% | 107% | 126% | 101% | 100% | 98.2% | 95% | 85.5% | 88% | 78.6%
12 | Cc1csc(-c2nnc(Nc3ccc(Oc4ncccc4-c4ccnc(N)n4)cc3)c3ccccc23)c1 | 104% | 114% | 114% | 56% | 46% | 48.9% | 45% | 42.1% | 32.5% | 36.5% | 34.2% | 94% | 107% | 115% | 36.4% | 30% | 34% | 34.6% | 29.1% | 29.5% | 28.5% | 28.5% | 108% | 100% | 102% | 55.2% | 25.5% | 24.5% | 23.9% | 28.6% | 18.7% | 18.7% | 21%
13 | Cc1cccc(Nc2ccncc2[S+](=O)([O-])NC(=O)NC(C)C)c1 | 80.2% | 82.6% | 88% | 92.4% | 85.7% | 95.1% | 98.6% | 85.6% | 75.5% | 84.4% | 72.3% | 89.7% | 104% | 110% | 94.4% | 106% | 111% | 101% | 95.7% | 83.8% | 101% | 84.5% | 103% | 94.6% | 83.8% | 102% | 96.2% | 97.9% | 111% | 87.7% | 90.4% | 95.3% | 88.5%

Source: the supplement of paper PMC11451515
